# Results published in ChEMBL document CHEMBL1268968, “Lupane-type triterpenoids from the steamed leaves of Acanthopanax koreanum and their inhibitory effects on the LPS-stimulated pro-inflammatory cytokine production in bone marrow-derived dendritic cells” (Bioorg Med Chem Lett, 2010).
# How the values were obtained:
# [1] = Antiinflammatory activity in C57BL/6 mouse BMDCs assessed as inhibition of LPS-stimulated IL12 production at 50 uM treated 1 hr before LPS challenge measured 18 hrs post stimulation by ELISA; format: functional, BMDC
# [2] = Antiinflammatory activity in C57BL/6 mouse BMDCs assessed as inhibition of LPS-stimulated IL6 production at 50 uM treated 1 hr before LPS challenge measured 18 hrs post stimulation by ELISA; format: functional; conditions: C57BL/6, BMDC
# [3] = Antiinflammatory activity in C57BL/6 mouse BMDCs assessed as inhibition of LPS-stimulated TNFalpha production at 50 uM treated 1 hr before LPS challenge measured 18 hrs post stimulation by ELISA; format: functional, BMDC
# [4] = Toxicity in C57BL/6 mouse BMDCs at 50 uM; format: cell-based; conditions: bmdc
SMILES,inhibition (INH) [1] [%],inhibition at 50 µM [2] [%],inhibition (INH) [3] [%],Activity [4]
COC(OC)[C@H](C)[C@@H]1CC[C@]2(C(=O)O)CC[C@]3(C)[C@H](CC[C@@H]4[C@@]5(C)CC[C@@H](O)[C@@](C)(C(=O)O)[C@@H]5CC[C@]43C)[C@@H]12,94.2,63.6,64.7,Non-toxic
C=C(C)[C@@H]1CC[C@]2(C(=O)O[C@@H]3O[C@H](CO[C@@H]4O[C@H](CO)[C@@H](O)[C@H](O)[C@H]4O)[C@@H](O)[C@H](O)[C@H]3O)CC[C@]3(C)[C@H](CC[C@@H]4[C@@]5(C)CC[C@@H](O)[C@@](C)(C(=O)O)[C@@H]5CC[C@]43C)[C@@H]12,<50,,,Non-toxic
C=C(C)[C@@H]1CC[C@]2(C(=O)O)CC[C@]3(C)[C@H](C[C@@H](O)[C@@H]4[C@@]5(C)CC[C@@H](O[C@@H]6O[C@H](CO)[C@@H](O)[C@H](O)[C@H]6O)C(C)(C)[C@@H]5CC[C@]43C)[C@@H]12,<50,,,Non-toxic
C=C(C)[C@@H]1CC[C@]2(C(=O)O)CC[C@]3(C)[C@H](CC[C@@H]4[C@@]5(C)CC[C@@H](O)[C@@](C)(C(=O)O)[C@@H]5CC[C@]43C)[C@@H]12,<50,,,Non-toxic
C=C(C)[C@@H]1CC[C@]2(C(=O)O)CC[C@]3(C)[C@H](C[C@@H](O)[C@@H]4[C@@]5(C)CC[C@@H](O)[C@@](C)(C=O)[C@@H]5CC[C@]43C)[C@@H]12,57.6,,,Non-toxic
C=C(C)[C@@H]1CC[C@]2(C(=O)O)CC[C@]3(C)[C@H](C[C@@H](O)[C@@H]4[C@@]5(C)CC[C@@H](O)[C@@](C)(CO)[C@@H]5CC[C@]43C)[C@@H]12,<50,,,Non-toxic
C=C(C)[C@@H]1CC[C@]2(C(=O)O[C@@H]3O[C@H](CO[C@@H]4O[C@H](CO)[C@@H](O[C@@H]5O[C@@H](C)[C@H](O)[C@@H](O)[C@H]5O)[C@H](O)[C@H]4O)[C@@H](O)[C@H](O)[C@H]3O)CC[C@]3(C)[C@H](CC[C@@H]4[C@@]5(C)CC[C@@H](O)[C@@](C)(C(=O)O)[C@@H]5CC[C@]43C)[C@@H]12 [ACANKOREOSIDE A],<50,,,Non-toxic
C=C(C)[C@@H]1CC[C@]2(C(=O)O[C@@H]3O[C@H](CO[C@@H]4O[C@H](CO)[C@@H](O[C@H]5O[C@@H](C)[C@H](O)[C@@H](O)[C@H]5O)[C@H](O)[C@H]4O)[C@@H](O)[C@H](O)[C@H]3O)CC[C@]3(C)[C@H](C[C@@H](O)[C@@H]4[C@@]5(C)CC[C@@H](O)[C@@](C)(C=O)[C@@H]5CC[C@]43C)[C@@H]12 [ACANKOREOSIDE D],<50,,,Non-toxic
C=C(C)[C@@H]1CC[C@]2(C(=O)O[C@@H]3O[C@H](CO[C@@H]4O[C@H](CO)[C@@H](O[C@H]5O[C@@H](C)[C@H](O)[C@@H](O)[C@H]5O)[C@H](O)[C@H]4O)[C@@H](O)[C@H](O)[C@H]3O)CC[C@]3(C)[C@H](C[C@@H](O)[C@@H]4[C@@]5(C)CC[C@@H](O)C(C)(C)[C@@H]5CC[C@]43C)C12 (some centres undefined) [ACANTRIFOSIDE A],<50,,,Non-toxic
C=C(C)[C@@H]1CC[C@]2(C(=O)O)CC[C@]3(C)[C@H](C[C@@H](O)[C@@H]4[C@@]5(C)CC[C@@H](O)C(C)(C)[C@@H]5CC[C@]43C)[C@@H]12 [IMPRESSIC ACID],62.6,,67.9,Non-toxic
C[S+]([O-])c1ccc(-c2nc(-c3ccc(F)cc3)c(-c3ccncc3)[nH]2)cc1 (centres undefined) [SB-203580],84.3,,,
